Consider 5 molecules from patent US12252524B2, “GIP/GLP1 co-agonist compounds” (Eli Lilly and Company, priority 2018, dated 2025).

In experiment [1] the target is T1, gastric inhibitory peptide receptor (GIPR) (Homo sapiens, UniProt P48546).
T1 sequence (P48546 22-466): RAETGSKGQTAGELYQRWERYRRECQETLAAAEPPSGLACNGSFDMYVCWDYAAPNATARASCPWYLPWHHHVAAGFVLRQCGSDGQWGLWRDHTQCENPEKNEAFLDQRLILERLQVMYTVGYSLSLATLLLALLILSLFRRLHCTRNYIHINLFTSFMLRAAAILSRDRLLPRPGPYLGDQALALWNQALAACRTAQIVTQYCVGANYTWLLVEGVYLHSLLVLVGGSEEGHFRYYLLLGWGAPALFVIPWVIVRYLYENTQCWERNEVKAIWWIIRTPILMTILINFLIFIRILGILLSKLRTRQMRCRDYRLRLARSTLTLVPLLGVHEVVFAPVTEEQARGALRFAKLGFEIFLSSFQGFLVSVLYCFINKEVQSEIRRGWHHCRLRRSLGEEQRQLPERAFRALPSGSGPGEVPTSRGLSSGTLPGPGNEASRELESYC
Description: cAMP pharmacological functional assay in presence of casein, hGIPR. The experiment is classed as cell-based. The following applies: HEK293 cells expressing hGIPR, 0.1% Casein, geometric mean; read-out: hGIPR cAMP Rel EC50 nM (SEM, n).

Experiment [2] concerns the target human GLP-1R (Homo sapiens, UniProt P43220). Description: [125I]-GLP-1 binding (SPA), human GLP-1 receptor. Also on record: expressed in transfected cells; crude membranes. The note with it: read-out: hGLP1R Ki, (nM) (SEM, n). The gist of the method:
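Membranes: hypotonic lysis (50 mM Tris HCl, pH 7.5, protease inhibitors), Potter-Elvehjem homogenization, high-speed pellet (35000×g 1 h or 25000×g 30 min, 4° C.). Buffer: 25 mM HEPES pH 7.4, 2.5 mM CaCl2, 1 mM MgCl2. Four-parameter IC50 fit; Ki as geometric mean ± SEM.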

Experiment [3] deals with human GLP-1 receptor (GLP-1R) (Homo sapiens, UniProt P43220). The experiment can be described thus: cAMP pharmacological functional assay in presence of casein, hGLP-1R. The class given is cell-based. The following applies: HEK293 cells expressing hGLP-1R, 0.1% Casein, geometric mean; read-out: hGLP1R cAMP Rel EC50 nM (SEM, n).
The target in experiment [4] is T2, human Gcg receptor (Homo sapiens, UniProt P47871).
T2 construct: expressed in transfected cells; crude membranes
Description: [125I]-Glucagon binding (SPA), human Gcg receptor. The note with it: read-out: hGLcgR Ki, nM (SEM, n). The gist of the method: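 Scintillation counts are taken after membranes and WGA beads incubate and settle for 12 hours at room temperature. Buffer is 25 mM HEPES, pH 7.4, with CaCl2, MgCl2, bacitracin and Tween-20. Ki values, from four-parameter IC50 fits, are geometric means over independent days.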

The target of experiment [5] is T3, human GIP receptor (Homo sapiens, UniProt P48546).
T3 construct: expressed in transfected cells; crude membranes
T3 sequence (P48546 22-466): T1 sequence (P48546 22-466)
Description: [125I]-GIP binding (SPA), human GIP receptor. The note with it: read-out: hGIPR Ki, nM (SEM, n).

The structures appear in SMILES notation. Numbered stars: 1 amine (or outer) side, 2 acyl side, 3 side chain; on linkers, the order of the positions; unused ones are H or OH. Square brackets hold non-standard residues; d marks the D form. Side chains are listed from the residue outwards. Peptide text beside a SMILES is read from it. * marks the point of attachment. C20 diacid = O=C(O)CCCCCCCCCCCCCCCCCCC(=O)*; C18 diacid = O=C(O)CCCCCCCCCCCCCCCCC(=O)*; αMePhe(2-F) = C[C@](N)(Cc1ccccc1F)C(=O)O; γGlu = O=C(O)[C@H](CCC(=O)[*:2])N[*:1]; αMeF = C[C@](N)(Cc1ccccc1)C(=O)O; 4Pal = N[C@@H](Cc1ccncc1)C(=O)O; αMeL = CC(C)C[C@](C)(N)C(=O)O; Dab = NCC[C@H](N)C(=O)O; AEEA = NCCOCCOCC(=O)O; Aib = CC(C)(N)C(=O)O

Sequence of human GLP-1R (P43220 24-463): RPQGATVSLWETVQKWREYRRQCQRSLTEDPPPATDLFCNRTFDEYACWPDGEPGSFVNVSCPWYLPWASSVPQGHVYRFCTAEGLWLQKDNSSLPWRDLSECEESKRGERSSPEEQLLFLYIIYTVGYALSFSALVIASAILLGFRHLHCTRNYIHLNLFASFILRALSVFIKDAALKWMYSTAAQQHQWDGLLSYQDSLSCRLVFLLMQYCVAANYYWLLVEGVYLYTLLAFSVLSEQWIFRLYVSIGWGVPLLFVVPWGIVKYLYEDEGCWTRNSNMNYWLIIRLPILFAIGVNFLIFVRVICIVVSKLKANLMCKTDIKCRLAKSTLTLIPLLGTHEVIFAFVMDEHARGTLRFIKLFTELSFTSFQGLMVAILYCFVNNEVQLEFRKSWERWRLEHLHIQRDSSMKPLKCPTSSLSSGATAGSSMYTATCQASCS
Sequence of human GLP-1 receptor (GLP-1R) (P43220 24-463): as above
T2 sequence (P47871 26-477): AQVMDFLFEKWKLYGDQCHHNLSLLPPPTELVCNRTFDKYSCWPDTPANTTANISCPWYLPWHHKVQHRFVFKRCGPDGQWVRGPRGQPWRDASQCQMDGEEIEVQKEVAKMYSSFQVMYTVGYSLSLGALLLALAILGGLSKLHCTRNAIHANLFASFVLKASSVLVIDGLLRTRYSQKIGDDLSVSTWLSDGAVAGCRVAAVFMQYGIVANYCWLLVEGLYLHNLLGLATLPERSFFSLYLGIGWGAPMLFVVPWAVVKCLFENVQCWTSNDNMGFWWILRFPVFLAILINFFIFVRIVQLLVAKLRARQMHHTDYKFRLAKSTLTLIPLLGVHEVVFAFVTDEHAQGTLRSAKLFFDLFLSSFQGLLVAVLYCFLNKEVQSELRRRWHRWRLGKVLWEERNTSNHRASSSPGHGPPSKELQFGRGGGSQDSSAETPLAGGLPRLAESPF

For orientation: EC50 means the midpoint of the concentration-response curve. As usually defined, the Ki is a dissociation constant, usually derived from enzyme kinetics or from competition with a known ligand. As to `CC[C@H](C)[C@H](NC(=O)[C@H](CC(C)C)NC(=O)C(C)(Cc1ccc(O)cc1)NC(=O)[C@@H](CCC(=O)O)NC(=O)[C@@H](NC(=O)[C@H](Cc1ccccc1)NC(=O)[C@H](C)NC(=O)C(C)(C)NC(=O)[C@H](CCC(N)=O)NC(=O)[C@H](C)NC(=O)[C@H](CCCCNC(=O)COCCOCCNC(=O)COCCOCCNC(=O)[C@@H](N)CCCCNC(=O)CCCCCCCCCCCCCCCCCCC(=O)O)NC(=O)[C@H](CCCN)NC(=O)[C@H](CC(=O)O)NC(=O)[C@H](CC(C)C)NC(=O)C(C)(CC(C)C)NC(=O)[C@@H](NC(=O)[C@H](CO)NC(=O)[C@H](Cc1ccncc1)NC(=O)[C@H](CC(=O)O)NC(=O)[C@H](CO)NC(=O)[C@@H](NC(=O)C(C)(Cc1ccccc1F)NC(=O)[C@@H](NC(=O)CNC(=O)[C@H](CCC(=O)O)NC(=O)C(C)(C)NC(=O)[C@@H](N)Cc1ccc(O)cc1)[C@@H](C)O)[C@@H](C)O)[C@@H](C)CC)[C@@H](C)CC)C(=O)N[C@@H](CCC(=O)O)C(=O)NCC(=O)NCC(=O)N1CCC[C@H]1C(=O)N[C@@H](CO)C(=O)N[C@@H](CO)C(=O)NCC(=O)N[C@@H](C)C(=O)N1CCC[C@H]1C(=O)N1CCC[C@H]1C(=O)N1CCC[C@H]1C(=O)N[C@@H](CO)C(N)=O` (stereo partly shown) [Example 251], the concentration for a half-maximal effect (EC50) came out at 0.0292 nM in experiment [1] and 0.081 nM in experiment [3]. Further, the Ki in experiment [2] was found to be 1.09 nM; in experiment [4] it was 21.2 nM; in experiment [5], 0.0249 nM.

Take `CC[C@H](C)[C@H](NC(=O)[C@H](CC(C)C)NC(=O)[C@H](Cc1ccc(O)cc1)NC(=O)[C@@H](CCC(=O)O)NC(=O)[C@@H](NC(=O)[C@H](Cc1ccccc1)NC(=O)[C@H](CCC(=O)O)NC(=O)C(C)(C)NC(=O)[C@H](CCC(N)=O)NC(=O)[C@H](C)NC(=O)[C@H](CCCCNC(=O)COCCOCCNC(=O)COCCOCCNC(=O)CC[C@H](NC(=O)CCCCCCCCCCCCCCCCC(=O)O)C(=O)O)NC(=O)[C@H](CCN)NC(=O)[C@H](CC(=O)O)NC(=O)[C@H](CC(C)C)NC(=O)[C@](C)(CC(C)C)NC(=O)[C@@H](NC(=O)[C@H](CO)NC(=O)[C@H](Cc1ccncc1)NC(=O)[C@H](CC(=O)O)NC(=O)[C@H](CO)NC(=O)[C@@H](NC(=O)[C@](C)(Cc1ccccc1)NC(=O)[C@@H](NC(=O)CNC(=O)[C@H](CCC(=O)O)NC(=O)C(C)(C)NC(=O)[C@@H](N)Cc1ccc(O)cc1)[C@@H](C)O)[C@@H](C)O)[C@@H](C)CC)[C@@H](C)CC)C(=O)N[C@@H](CCC(=O)O)C(=O)NCC(=O)NCC(=O)N1CCC[C@H]1C(=O)N[C@@H](CO)C(=O)N[C@@H](CO)C(=O)NCC(=O)N[C@@H](C)C(=O)N1CCC[C@H]1C(=O)N1CCC[C@H]1C(=O)N1CCC[C@H]1C(=O)N[C@@H](CO)C(N)=O` [Example 235] (H-Y[Aib]EGT[αMeF]TSD[4Pal]SI[αMeL]LD[Dab]K([AEEA-AEEA-γGlu-C18 diacid])AQ[Aib]EFI[dE]YLIEGGPSSGAPPPS-NH2): the EC50 came out at 0.0372 nM in experiment [1] and 0.136 nM in experiment [3]. The results for the Ki in experiment [2], in experiment [4] and in experiment [5] were 7.65 nM, greater than 1200 nM and 0.0581 nM, respectively.

`CC[C@H](C)[C@H](NC(=O)[C@H](CC(C)C)NC(=O)[C@H](Cc1ccc(O)cc1)NC(=O)[C@@H](CCC(=O)O)NC(=O)[C@@H](NC(=O)[C@H](Cc1ccccc1)NC(=O)[C@H](CCC(=O)O)NC(=O)C(C)(C)NC(=O)[C@H](CCC(N)=O)NC(=O)[C@H](C)NC(=O)[C@H](CCCCNC(=O)COCCOCCNC(=O)COCCOCCNC(=O)CC[C@H](NC(=O)CCCCCCCCCCCCCCCCC(=O)O)C(=O)O)NC(=O)[C@H](CCN)NC(=O)[C@H](CC(=O)O)NC(=O)[C@H](CC(C)C)NC(=O)[C@](C)(CC(C)C)NC(=O)[C@@H](NC(=O)[C@H](CO)NC(=O)[C@H](Cc1ccc(O)cc1)NC(=O)[C@H](CC(=O)O)NC(=O)[C@H](CO)NC(=O)[C@@H](NC(=O)[C@](C)(Cc1ccccc1F)NC(=O)[C@@H](NC(=O)CNC(=O)[C@H](CCC(=O)O)NC(=O)C(C)(C)NC(=O)[C@@H](N)Cc1ccc(O)cc1)[C@@H](C)O)[C@@H](C)O)[C@@H](C)CC)[C@@H](C)CC)C(=O)N[C@@H](CCC(=O)O)C(=O)NCC(=O)NCC(=O)N1CCC[C@H]1C(=O)N[C@@H](CO)C(=O)N[C@@H](CO)C(=O)NCC(=O)N[C@@H](C)C(=O)N1CCC[C@H]1C(=O)N1CCC[C@H]1C(=O)N1CCC[C@H]1C(=O)N[C@@H](CO)C(N)=O` [Example 209] (H-Y[Aib]EGT[αMePhe(2-F)]TSDYSI[αMeL]LD[Dab]K([AEEA-AEEA-γGlu-C18 diacid])AQ[Aib]EFI[dE]YLIEGGPSSGAPPPS-NH2): the figures for the EC50 in experiment [1] and in experiment [3] were 0.0308 nM and 0.0374 nM, respectively. For the same molecule, the inhibition constant Ki in experiment [2] was 1.43 nM; in experiment [4], greater than 1060 nM; in experiment [5] it was 0.0664 nM.

Take `CC[C@H](C)[C@H](NC(=O)[C@H](CC(C)C)NC(=O)[C@H](Cc1ccc(O)cc1)NC(=O)[C@H](CCC(=O)O)NC(=O)[C@@H](NC(=O)[C@H](Cc1ccccc1)NC(=O)[C@H](C)NC(=O)[C@H](Cc1c[nH]cn1)NC(=O)[C@H](CCC(N)=O)NC(=O)[C@H](C)NC(=O)[C@H](CCCCNC(=O)COCCOCCNC(=O)COCCOCCNC(=O)CC[C@H](NC(=O)CCCCCCCCCCCCCCCCCCC(=O)O)C(=O)O)NC(=O)[C@H](CCC(=O)O)NC(=O)[C@H](CC(=O)O)NC(=O)[C@H](CC(C)C)NC(=O)[C@](C)(CC(C)C)NC(=O)[C@@H](NC(=O)[C@H](CO)NC(=O)[C@H](Cc1ccc(O)cc1)NC(=O)[C@H](CC(=O)O)NC(=O)[C@H](CO)NC(=O)[C@@H](NC(=O)[C@H](Cc1ccccc1)NC(=O)[C@@H](NC(=O)CNC(=O)[C@H](CCC(=O)O)NC(=O)C(C)(C)NC(=O)[C@@H](N)Cc1ccc(O)cc1)[C@@H](C)O)[C@@H](C)O)[C@@H](C)CC)[C@@H](C)CC)C(=O)N[C@@H](CCC(=O)O)C(=O)NCC(=O)NCC(=O)N1CCC[C@H]1C(=O)N[C@@H](CO)C(=O)N[C@@H](CO)C(=O)NCC(=O)N[C@@H](C)C(=O)N1CCC[C@H]1C(=O)N1CCC[C@H]1C(=O)N1CCC[C@H]1C(=O)N[C@@H](CO)C(N)=O` [Example 56] (H-Y[Aib]EGTFTSDYSI[αMeL]LDEK([AEEA-AEEA-γGlu-C20 diacid])AQHAFIEYLIEGGPSSGAPPPS-NH2): the EC50 in experiment [1] was determined as 0.167 nM; in experiment [3] it was 0.136 nM. For the same molecule, the Ki in experiment [2] is 10.3 nM; in experiment [4], greater than 1060 nM; in experiment [5] it was 0.148 nM.

For the molecule `CC[C@H](C)[C@H](NC(=O)[C@H](CCCCN)NC(=O)[C@H](CC(=O)O)NC(=O)[C@H](CC(C)C)NC(=O)[C@H](CC(C)C)NC(=O)[C@@H](NC(=O)[C@H](CO)NC(=O)[C@H](Cc1ccc(O)cc1)NC(=O)[C@H](CC(=O)O)NC(=O)[C@H](CO)NC(=O)[C@@H](NC(=O)[C@H](Cc1ccccc1)NC(=O)[C@@H](NC(=O)CNC(=O)[C@H](CCC(=O)O)NC(=O)C(C)(C)NC(=O)[C@@H](N)Cc1ccc(O)cc1)[C@@H](C)O)[C@@H](C)O)[C@@H](C)CC)C(=O)N[C@@H](C)C(=O)N[C@@H](CCC(N)=O)C(=O)N[C@@H](CCCCNC(=O)COCCOCCNC(=O)COCCOCCNC(=O)CC[C@H](NC(=O)CCCCCCCCCCCCCCCCCCC(=O)O)C(=O)O)C(=O)N[C@@H](C)C(=O)N[C@@H](Cc1ccccc1)C(=O)N[C@H](C(=O)N[C@@H](CCC(=O)O)C(=O)N[C@@H](Cc1ccc(O)cc1)C(=O)N[C@@H](CC(C)C)C(=O)N[C@H](C(=O)N[C@@H](CCC(=O)O)C(=O)NCC(=O)NCC(=O)N1CCC[C@H]1C(=O)N[C@@H](CO)C(=O)N[C@@H](CO)C(=O)NCC(=O)N[C@@H](C)C(=O)N1CCC[C@H]1C(=O)N1CCC[C@H]1C(=O)N1CCC[C@H]1C(=O)N[C@@H](CO)C(N)=O)[C@@H](C)CC)[C@@H](C)CC` [Example 12] (H-Y[Aib]EGTFTSDYSILLDKIAQK([AEEA-AEEA-γGlu-C20 diacid])AFIEYLIEGGPSSGAPPPS-NH2; N-terminus assumed), the figures for the EC50 in experiment [1] and in experiment [3] were 0.3 nM and 1.15 nM, respectively. Further, the Ki in experiment [2] was determined as 12.9 nM; in experiment [4], 684 nM; in experiment [5], 0.167 nM.
